Measurements reported in patent publication US12466849B2, “Anti-viral and anti-tumoral compounds” (YEDA RESEARCH AND DEVELOPMENT CO. LTD, priority 2020, dated 2025).
In brackets after ≈: the same amount, converted by molar mass. Like-named read-outs stand apart in the source and are kept apart here.

How the values were obtained:
poliovirus-1 (POV-1) [1] = settings: for SI: POV-1, SI = CC50/EC50
[2] = tested on: enterovirus-68 (EV-68, US/DY/14-18953); test: organism not typed; settings: RD
in vitro [3] = settings: human
poliovirus-1 (POV-1) [4] = test: organism not typed
[5] = tested on: enterovirus-68 (EV-68, US/DY/14-18953); settings: EV-68; SI = CC50/EC50
Powassan virus (POWV) [6] = settings: POWV; SI = CC50/EC50
adenovirus-5 (Ad5) [7] = test: organism not typed; settings: A549
[8] = tested on: Venezuelan equine encephalitis virus (VEEV); test: microbe, parasite or virus in culture; settings: Vero 76
Influenza B [9] = tested on: Influenza B
dengue virus-2 (DV-2) [10] = test: microbe, parasite or virus in culture; settings: Huh-7
[11] = tested on: Rift Valley fever virus (RVFV); test: microbe, parasite or virus in culture; settings: Vero 76
Yellow fever virus (YFV) [12] = settings: YFV; SI = CC50/EC50
[13] = rat, 1 µM
influenza A(H1N1) [14] = tested on: influenza A(H1N1)
in vitro [15] = settings: dog
Yellow fever virus (YFV) [16] = test: microbe, parasite or virus in culture; settings: Huh-7
[17] = tested on: Venezuelan equine encephalitis virus (VEEV); settings: VEEV; SI = CC50/EC50
influenza A(H5N1) [18] = test: microbe, parasite or virus in culture; settings: H5N1, MDCK
influenza A(H5N1) [19] = tested on: influenza A(H5N1)
Zika virus [20] = test: microbe, parasite or virus in culture; settings: Vero 76
West Nile virus (WNV) [21] = test: microbe, parasite or virus in culture; settings: Vero 76
Powassan virus (POWV) [22] = test: microbe, parasite or virus in culture; settings: BHK-21
adenovirus-5 (Ad5) [23] = settings: Ad5; SI = CC50/EC50
in vitro [24] = settings: African green monkey
[25] = human
RSV [26] = settings: RSV; SI = CC50/EC50
in vitro [27] = settings: African green monkey; remark: listed apart in the source
Zika virus [28] = settings: Zika; SI = CC50/EC50
in vitro [29] = settings: African green monkey; remark: listed apart in the source
[30] = tested on: Japanese encephalitis virus (JEV); settings: JEV; SI = CC50/EC50
in vitro [31] = settings: African green monkey; remark: listed apart in the source
RSV [32] = test: microbe, parasite or virus in culture; settings: human respiratory syncytial virus, MA104
SARS-CoV [33] = test: microbe, parasite or virus in culture; settings: Severe acute respiratory syndrome coronavirus, Vero 76
in vitro [34] = settings: African green monkey; remark: listed apart in the source
Influenza B [35] = test: microbe, parasite or virus in culture; settings: MDCK
West Nile virus (WNV) [36] = settings: WNV; SI = CC50/EC50
in vitro [37] = settings: dog; remark: listed apart in the source
TCRV [38] = test: microbe, parasite or virus in culture; settings: Mammarenavirus tacaribeense, Vero C1008
dengue virus-2 (DV-2) [39] = settings: DV-2; SI = CC50/EC50
in vitro [40] = settings: Syrian hamster
enterovirus-68 (EV-68) [41] = test: organism not typed; settings: RD
in vitro [42] = settings: African green monkey; remark: listed apart in the source
HCMV AD169 = test: HCMV plaque reduction assay, MRC-5 cells, strain AD169; format: cell-based, Human cytomegalovirus; settings: Human betaherpesvirus 5, 144 h; hCMV AD169, MRC5 cells, plaque assay, 6-days duration
SARS-CoV-2 [43] = settings: SARS-CoV-2; SI = CC50/EC50
in vitro [44] = settings: African green monkey; remark: listed apart in the source
[45] = tested on: Rift Valley fever virus (RVFV); settings: RVFV; SI = CC50/EC50
[46] = MRC-5 cytotoxicity assay (MTS) and visual cytotoxicity; settings: human
SARS-CoV-2 [47] = test: microbe, parasite or virus in culture; settings: Severe acute respiratory syndrome coronavirus 2, Vero 76
in vitro [48] = settings: African green monkey; remark: listed apart in the source
SARS-CoV [49] = settings: SARS-CoV; SI = CC50/EC50
in vitro [50] = settings: dog; remark: listed apart in the source
influenza A(H1N1) [51] = test: microbe, parasite or virus in culture; settings: H1N1, MDCK
in vitro [52] = settings: African green monkey; remark: listed apart in the source
enterovirus-68 (EV-68) [53] = settings: EV-68; SI = CC50/EC50
[54] = tested on: Japanese encephalitis virus (JEV); test: microbe, parasite or virus in culture; settings: Vero 76
TCRV [55] = settings: TCRV; SI = CC50/EC50

CC(C)S(=O)(=O)n1c(N)nc2ccc(/C(=N/O)c3ccccc3)cc21 [Enviroxime]
SI (poliovirus-1 (POV-1) [1]): 350 | CC50 (poliovirus-1 (POV-1) [1]; Vero 76 cells without virus, positive control): 3.3 µg/mL (≈ 9.21 µM) | EC50 [2]: 0.12 µg/mL (≈ 0.335 µM) | CC50 (in vitro [3]): 5.5 µg/mL (≈ 15.3 µM) | EC50 (poliovirus-1 (POV-1) [4]; Vero 76, read-out: EQ50): 9.5 ng/mL | SI50 (SI) [5]: 46

Nc1nc2c(ncn2[C@@H]2OC(CO)=CC2O)c(=O)[nH]1 (some centres unmarked) [AB21651]
SI (Powassan virus (POWV) [6]): 0 | EC50 (adenovirus-5 (Ad5) [7]): > 2 mM | EC50 [8]: > 2 mM | SI (Influenza B [9]): 0 | EC50 (dengue virus-2 (DV-2) [10]): > 2 mM | EC50 [11]: > 2 mM | SI (Yellow fever virus (YFV) [12]): 0 | Peak area ratio, metabolite formed (AB21649 from AB23039, AB21651 from AB23040) ([13]; 15 min): 6.93E−04 | Peak area ratio, metabolite formed (AB21649 from AB23039, AB21651 from AB23040) ([13]; 60 min): 7.68E−04 | antiviral activity against Influenza (H1N1) (in words) (influenza A(H1N1) [14]): exhibits antiviral activity | SI (influenza A(H1N1) [14]; H1N1): >4.5 | CC50 (in vitro [15]): > 2 mM | SI (poliovirus-1 (POV-1) [1]): 0 | EC50 (Yellow fever virus (YFV) [16]): > 2 mM | SI [17]: 0 | EC50 (influenza A(H5N1) [18]): 1.3 mM | antiviral activity against Influenza (H5N1) (in words) (influenza A(H5N1) [19]; Table 11): exhibits antiviral activity | SI (influenza A(H5N1) [19]; influenza A(H5N1), SI = CC50/EC50): >1.5 | EC50 (Zika virus [20]): > 2 mM | EC50 (West Nile virus (WNV) [21]): > 2 mM | EC50 (Powassan virus (POWV) [22]): > 2 mM | SI (adenovirus-5 (Ad5) [23]): 0 | CC50 (in vitro [24]): > 2 mM | Peak area ratio, metabolite formed (AB21649 from AB23039, AB21651 from AB23040) ([25]; 0 min, 1 µM): 6.17E−04 | Peak area ratio, metabolite formed (AB21649 from AB23039, AB21651 from AB23040) ([25]; 0 min, 1 μM): 7.04E−04 | Peak area ratio, metabolite formed (AB21649 from AB23039, AB21651 from AB23040) ([25]; 15 min, 1 μM): 1.03E−03 | Peak area ratio, metabolite formed (AB21649 from AB23039, AB21651 from AB23040) ([25]; 60 min, 1 μM): 1.50E−03 | SI (RSV [26]): 0 | CC50 (in vitro [27]): > 2 mM | SI (Zika virus [28]): 0 | CC50 (in vitro [29]): > 2 mM | SI [30]: 0 | CC50 (in vitro [31]): > 2 mM | EC50 (RSV [32]): > 2 mM | EC50 (SARS-CoV [33]): > 2 mM | CC50 (in vitro [34]): > 2 mM | EC50 (Influenza B [35]): > 2 mM | SI (West Nile virus (WNV) [36]): 0 | CC50 (in vitro [37]): > 2 mM | EC50 (TCRV [38]): > 2 mM | EC50 (poliovirus-1 (POV-1) [4]; Vero 76): > 2 mM | SI (dengue virus-2 (DV-2) [39]): 0 | CC50 (in vitro [40]): > 2 mM | EC50 (enterovirus-68 (EV-68) [41]): > 1.1 mM | CC50 (in vitro [42]): > 2 mM | EC50 (HCMV AD169): > 100 µM | SI (SARS-CoV-2 [43]): 0 | CC50 (in vitro [44]): > 2 mM | SI [45]: 0 | CC50 at 6 days [46]: > 100 µM | EC50 (SARS-CoV-2 [47]): > 2 mM | CC50 (in vitro [48]): > 2 mM | SI (SARS-CoV [49]): 0 | CC50 (in vitro [50]): > 2 mM | EC50 (influenza A(H1N1) [51]): 440 µM | CC50 (in vitro [52]): > 2 mM | SI (enterovirus-68 (EV-68) [53]): 0 | EC50 [54]: > 2 mM | SI (TCRV [55]): 0
